Patent publication US20040023893A1, “Novel coumarin derivatives and the salts thereof, a process for the preparation thereof and their use in the pharmaceutical field” (priority 2000, published 2004)
Read-outs that look alike come from different tables or passages of the source.

Key:
[1] = test system: carrageenin-induced oedema in rat paw; test: Carrageenin-induced oedema in rat paw; type: in vivo; conditions: 2 mg/Kg i.v. 5 minutes before 1.5 mg carrageenin intraplantar, paws weighed 3 hours later, saline controls = 100%
Method: Test 3—Reduction in Inflammation in Carrageenin-Induced Oedema in Rat Paw
A model of acute inflammation induced by intraplantar injection of 1.5 mg of carrageenin in rat paw was used. Administration of the compounds (2 mg/Kg) was by the intravenous route 5 minutes before oedema was induced: 3 hours later the animals were sacrificed and their paws were weighed as an indication of inflammation. The control animals received saline instead of the test compounds. The weight of the paws of the control animals was taken to correspond to 100% on the inflammation index.

[2] = test system: TNF release, murine macrophage line (J774); test: Inhibition of TNF release after stimulation with LPS in vitro, J774 macrophages (L929 mortality readout); type: cell-based; conditions: J774 macrophages stimulated with LPS, concentration (± standard error) inhibiting L929 fibroblast mortality by 50%, read-out: J774 CI50
Method: (§1) Test 1—Inhibition of TNF Release After Stimulation with LPS in vitro
(§2) The test compound was added to the culture medium in a murine macrophage line (J774) or to whole blood anti-coagulated with heparin. The cells were then stimulated with bacterial lipopolysacccharide. After incubation at 37° C. for a suitable length of time, the supernatant was removed from the culture and incubated with a line of murine fibroblasts (L929), sensitive to TNF. The quantity of TNF released after stimulation with LPS is measured by comparing mortality of the L929 cells with that of the controls. Table 1 reports for the single compounds the concentration (±standard error) able to inhibit fibroblast mortality (L929) by 50%.

TNF release, human blood = test: Inhibition of TNF release after stimulation with LPS in vitro, whole blood (L929 mortality readout); type: cell-based; conditions: heparinised whole blood stimulated with LPS; concentration (± standard error) inhibiting L929 fibroblast mortality by 50%; read-out: Human blood CI50
Method: as §1, §2

TNF = test: Inhibition of the release of TNF following stimulation with LPS in vivo; conditions: rat, blood 75 minutes after LPS, ELISA, vs saline controls
Method: (§3) Test 2—Inhibition of the Release of TNF and IL-β Following Stimulation with LPS in vivo
(§4) Conscious rats were injected with a dose of LPS, which is able to stimulate the release of TNF and IL-1β, having first received an intravenous administration (15 minutes beforehand) of the test compound at a dose of 0.5 mg/Kg or 2 mg/Kg. Blood levels of TNF and IL-1β were measured by the ELISA method on blood samples taken 75 minutes and 120 minutes after LPS respectively.
(§5) Table 2 below reports the percent of inhibition of each product compared to that of the controls treated with saline.

IL-1β = test: Inhibition of the release of IL-1β following stimulation with LPS in vivo; conditions: rat, blood 120 minutes after LPS, ELISA, vs saline controls
Method: as §3, §4, §5

[3] = test system: superoxide anions, human whole blood; test: Inhibition of superoxide anion formation induced by f-MLP in human whole blood; type: cell-based; conditions: 20 minutes preincubation at 37° C., f-MLP with cytochalasin B, read-out: CI50 (superoxide anion formation, Cytochrome C)
Method: Test 5—Inhibition of the Formation of Superoxide anions Induced by f-MLP in Human Whole Blood
Samples of whole blood diluted with PBS Cytochrome C were incubated for 20 minutes at 37° C. with the test compounds or saline before adding the chermotactic agent f-MLP (0.1 μm/l) in the presence of cytochalasin B. After 20 minutes of activation with this agent, the samples were centrifuged and readings were taken of the supernatants with a spectrophotometer to assess the reduction in Cytochrome C. Table 5 reports the concentrations that are effective in inhibiting the loss of Cytochrome C by 50%.

[4] = test system: platelet aggregation, human whole blood; test: Inhibition of collagen-induced platelet aggregation in human whole blood; type: cell-based; conditions: collagen 1 μg/ml, 1 minute preincubation, count 5 minutes after collagen, vs saline, read-out: CI50 (platelet aggregation)
Method: Test 6—Inhibition of Collagen-Induced Platelet Aggregation in Human Whole Blood
The aggregation event was analysed by counting the single non-aggregated platelets with a cell counter 5 minutes after adding collagen (1 μg/ml). In these working conditions, collagen induces platelet aggregation of over 80%. The test compounds or saline as control were preincubated for 1 minute before the collagen was added.
Table 6 reports the concentrations that inhibit platelet aggregation by 50% compared to saline.

Male CD-1 mice = test: Toxicity after a single intravenous administration; type: in vivo
From the text: (§6) Test 7—Toxicity After a Single Intravenous Administration
(§7) Male CD-1 mice were used to assess the maximum non-lethal does (MNLD—the highest does at which no cases of mortality are observed) and the maximum tolerated does (MTD—does at which no evident or marked signs of tocicity or altered behaviour are observed).

[5] = test system: Salmonella typhimurium (TA 98 and TA 100) and Escherichia coli (WP2 pKM101 and WP2 uvrA pKM1091); test: Mutagenesis (Mini-Ames test); type: cell-based; conditions: with and without microsomal liver enzyme preparation
Method: Test 8—Mutagenesis (Mini-Ames Test)
The Mini-Ames test is a version of the traditional Ames test which involves the incubation of bacterial cells on 35-mm dishes instead of 100-mm dishes, and it requires a smaller quantity of product while maintaining the reliability of the result.
The test is conducted on two strains of Salmonella typhimurium requiring histidine (TA 98 and TA 100) and two strains of Escherichia coli requiring tryptophan (WP2 pKM101 and WP2 uvrA pKM1091).
The bacterial cells were exposed to different concentrations of the test compounds in the presence and absence of a microsomal liver enzyme preparation, to reveal any possible metabolite activity.
Mutagenic activity was determined as the ability of the test compound to induce a significant increase in the number of mutant clones compared to those developed spontaneously in the cultures with the control vehicle.

nitrite-nitrate release = test: Inhibition of the release of nitrite-nitrate in rat plasma after LPS; type: in vivo; conditions: 25 mg/Kg o.s. 30 minutes before and 3 hours after LPS 0.1 mg/Kg i.v., blood 8 hours after LPS, Griess reagent, saline controls = 100%
Method: Test 4—Inhibition of the Release of Nitrite-Nitrate in Rat Plasma
The release of nitrite-nitrite was measured with Griess reagent in blood samples taken 8 hours after the administration of LPS (0.1 mg/Kg) i.v.
The animals were treated with the compounds by o.s. (25 mg/Kg) 30 minutes before and 3 hours after LPS. The control animals received saline instead of the test compounds. The values for the release of nitrite-nitrate were made to correspond to 100%.

[6] = Toxicity after a single intravenous administration; type: in vivo; conditions: mouse, in vivo, male CD-1 mice, read-out: DMT (maximum tolerated dose, MTD)
From the text: as §6, §7

[7] = dose of 0.5 mg/Kg i.v. 15 minutes before LPS
[8] = dose of 2 mg/Kg i.v. 15 minutes before LPS
[9] = iv, dose of 0.5 mg/Kg i.v. 15 minutes before LPS
[10] = iv, dose of 2 mg/Kg i.v. 15 minutes before LPS

Row | Compound | /o vs controls (paw weight, inflammation index) [1] | IC50 [2] | IC50 (TNF release, human blood) | % of inhibition of TNF (TNF; [7]) | % of inhibition of TNF (TNF; [8]) | % of inhibition of IL-1β (IL-1β; [7]) | % of inhibition of IL-1β (IL-1β; [8]) | IC50 [3] | IC50 [4] | DMNL (maximum non-lethal dose, MNLD) (Male CD-1 mice) | DMT (maximum tolerated dose, MTD) (Male CD-1 mice) | Mutagenic activity (Mini-Ames test) [5] | % vs controls (release of nitrite-nitrate) (nitrite-nitrate release) | IC50 ([2]; Mus musculus) | inhibition at 0.5 mg/kg (TNF; [9]) | inhibition at 2 mg/kg (TNF; [10]) | inhibition at 0.5 mg/kg (IL-1β; [9]) | inhibition at 2 mg/kg (IL-1β; [10]) | IC50 ([4]; Platelet) | MTD [6]
1 | C[C@H]1C[C@@H]2[C@H]([C@@H](O)C[C@@]3(C)[C@H]2CC[C@]3(O)C(=O)CO)[C@@]2(C)C=CC(=O)C=C12 [Methylprednisolone, reference compound] | 56 /o |  |  |  |  |  |  |  |  |  |  |  |  |  |  |  |  |  |  | 
2 | CCN(CC)CCc1c(C)c2ccc(OCC(=O)NC3CCCCC3)c(Cl)c2oc1=O.Cl.Cl [Compound 201330] | 77 /o | 12 ± 3.9 µM | 12.6 ± 3.5 µM | 75% | 62% | 33% | 57% | 36 µM | 93 µM | 50 mg(Kg | 25 mg/kg | None of the tested compounds (203152, 201273, 201326 and 201330) proved to be mutagenic |  |  |  |  |  |  |  | 
3 | CCCCC(O)COc1ccc2c(C)c(CCN(CC)CC)c(=O)oc2c1Cl.Cl (centres unmarked) [Compound 201326] | 58 /o | 10.5 ± 3 µM | 23 ± 2 µM | 85% | 77% | 40% | 62% | > 100 µM | 78 µM | 50 mg(Kg | 6.25 mg/kg | None of the tested compounds (203152, 201273, 201326 and 201330) proved to be mutagenic | 62% |  |  |  |  |  |  | 
4 | C[C@H]1C[C@H]2[C@@H]3CCC4=CC(=O)C=C[C@]4(C)[C@@]3(F)[C@@H](O)C[C@]2(C)[C@@]1(O)C(=O)CO [Betamethasone, reference compound] |  |  |  |  |  |  |  |  |  |  |  |  | 20% |  |  |  |  |  |  | 
5 | CCOC(=O)COc1ccc2c(C)c(CCN(CC)CC)c(=O)oc2c1Cl [Compound 201006, Cloricromene, reference compound] | 79 /o |  | 78.6 ± 10 µM |  |  |  |  | 52 µM |  | 12.5 mg(Kg |  |  | 99% | 57.9 ± 20 µM | 9% | 30% | 45% | 28% | 35 µM | 6.25 mg/kg
6 | CCCCC(O)COc1ccc2c(C)c(CCN(CC)CC)c(=O)oc2c1.Cl (centres unmarked) [Compound 201273] | 67 /o | 27.5 ± 5.3 µM | 40.4 ± 13.5 µM | 72% | 84% | 67% | 39% | > 100 µM | > 100 µM | 100 mg(Kg | 25 mg/kg | None of the tested compounds (203152, 201273, 201326 and 201330) proved to be mutagenic | 76% |  |  |  |  |  |  | 
7 | CCCCC[C@H](O)/C=C/[C@@H]1[C@H]2C/C(=C/CCCC(=O)O)O[C@H]2C[C@H]1O [PG12, reference compound] |  |  |  |  |  |  |  |  | 0.05 µM |  |  |  |  |  |  |  |  |  |  | 
8 | C=CCc1cc2c(C)c(CN3CCOCC3)c(=O)oc2c(CC=C)c1OCCCOc1c(CC=C)cc2c(C)c(CN3CCOCC3)c(=O)oc2c1CC=C.Cl.Cl [Compound 203152] | 90 /o | 13.3 ± 9 µM | > 80 µM | 72% | 73% | 64% | 60% | > 100 µM | > 100 µM | 200 mg(Kg | 50 mg/kg | None of the tested compounds (203152, 201273, 201326 and 201330) proved to be mutagenic | 108% |  |  |  |  |  |  | 
9 | COc1ccc2c(c1)c(CC(=O)O)c(C)n2C(=O)c1ccc(Cl)cc1 [Indomethacin, reference compound] | 57 /o |  |  |  |  |  |  |  |  |  |  |  |  |  |  |  |  |  |  | 
10 | CCOC(=O)[C@@H](N)CSCC(O)COc1ccc2c(C)c(CCN(CC)CC)c(=O)oc2c1.Cl.Cl (some centres unmarked) [Compound 201261] | 86 /o | 25.4 µM | 9 µM |  |  |  |  |  | > 100 µM | 200 mg(Kg | 50 mg/kg |  | 98% |  |  |  |  |  |  | 
